Bridge positions count the residues as written; N and C are the ends. Square brackets hold non-standard residues; d marks the D form. Peptide text beside a SMILES is read from it. I, II: the chains in the order shown. * marks the point of attachment. Succinyl(2R-iBu,4-NHOH) = CC(C)C[C@H](CC(=O)NO)C(=O)*; Hyp = O=C(O)[C@@H]1C[C@@H](O)CN1; Ahx = NCCCCCC(=O)O
Target: Human gelatinase
Assay: Inhibition of trypsin-activated human gelatinase, fluorogenic Mca peptide substrate
Assay type: biochemical
Conditions: substrate 10 μM, 37° C., 60 minutes, 5 minutes preincubation; read-out: IC50 against activated gelatinase
Protocol: Human gelatinase was activated with trypsin as follows. A reaction mixture was prepared in Tris buffer (pH 7.5) containing 20 mM Tris-HCl, 0.15 N NaCl, 4 μg/ml trypsin, 3 nM gelatinase and 5 mM CaCl2. The reaction mixture was incubated at 37° C. for 60 minutes and then soybean trypsin inhibitor was added at 44 μg/ml to quench the reaction.
The substrate was added at final 10 μM and was then further incubated at 37° C. for 60 minutes. The reaction was terminated by the addition of 750 μl of 0.1 N sodium acetate buffer (pH 4.0). The hydrolysis of the substrate was assessed by fluorescence, excitation at 328 nm and emission of 393 nm, with a Perkin-Elmer Fluorimeter LS-50B.

IC50 | Compound
24 nM | I: {Succinyl(2R-iBu,4-NHOH)}-WGP[Hyp]GP[Hyp]GPPSGG[Ahx]KKG-NH2 / II: {Succinyl(2R-iBu,4-NHOH)}-WGP[Hyp]GP[Hyp]GPPSGG[Ahx] / III: {Succinyl(2R-iBu,4-NHOH)}-WGP[Hyp]GP[Hyp]GPPSGG[Ahx] (amide I:15-II:C, I:16-III:C) [NHT2-L]
2.3 nM | CC(C)C[C@H](CC(=O)NO)C(=O)N[C@@H](Cc1c[nH]c2ccccc12)C(=O)NCC(=O)N1CCC[C@H]1C(=O)N1C[C@H](O)C[C@H]1C(=O)NCC(=O)N1CCC[C@H]1C(=O)N1CCC[C@H]1C(=O)N[C@@H](CO)C(=O)NCC(=O)NCC(=O)NCCCCCC(=O)NCCCC[C@H](NC(=O)CCCCCNC(=O)CNC(=O)CNC(=O)[C@H](CO)NC(=O)[C@@H]1CCCN1C(=O)[C@@H]1CCCN1C(=O)CNC(=O)[C@@H]1C[C@@H](O)CN1C(=O)[C@@H]1CCCN1C(=O)CNC(=O)[C@H](Cc1c[nH]c2ccccc12)NC(=O)[C@@H](CC(=O)NO)CC(C)C)C(=O)N[C@@H](CCCCNC(=O)CCCCCNC(=O)CNC(=O)CNC(=O)[C@H](CO)NC(=O)[C@@H]1CCCN1C(=O)[C@@H]1CCCN1C(=O)CNC(=O)[C@@H]1C[C@@H](O)CN1C(=O)[C@@H]1CCCN1C(=O)CNC(=O)[C@H](Cc1c[nH]c2ccccc12)NC(=O)[C@@H](CC(=O)NO)CC(C)C)C(=O)NCC(N)=O [NHT1-L] (I: {Succinyl(2R-iBu,4-NHOH)}-WGP[Hyp]GPPSGG[Ahx]KKG-NH2 / II: {Succinyl(2R-iBu,4-NHOH)}-WGP[Hyp]GPPSGG[Ahx] / III: {Succinyl(2R-iBu,4-NHOH)}-WGP[Hyp]GPPSGG[Ahx]; amide I:12-II:C, I:13-III:C)

Reference: patent US6187907A, “Triple helix coil template having a biologically active ligand” (priority 1998, dated 2001)
